# In PubChem BioAssay (NCI):
# Several values for one entry are separate records, joined by “and”; a condition that tells them apart may be missing. Identical values can stand only once.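 Growth conditions: 96-well plates. Treatment: test compound, 48 hours, 5 concentrations. Analysis: linear interpolation between bracketing concentrations; unreached endpoints set to highest concentration. At the GI50, growth is halved. TGI denotes the concentration required for complete inhibition of growth.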 Where a SMILES comes first, the peptide text is derived from it. [ ]: non-standard residue; d: D form. The star is where a group is joined. ξ: configuration not given here. dIva = CC[C@@](C)(N)C(=O)O; Aib = CC(C)(N)C(=O)O; ξP = O=C(O)C1CCCN1; βAla = NCCC(=O)O; X5 = OCN*
# Experiments:
# Experiment in all cases: growth of human tumour cells (NCI), 48 h
# SF-539 CNS = system: SF-539 CNS
# HOP-92 NSCLC = system: HOP-92 NSCLC
# K-562 leukemia = system: K-562 leukemia
# CCRF-CEM leukemia = system: CCRF-CEM leukemia
# UACC-257 melanoma = system: UACC-257 melanoma
# DU-145 prostate = system: DU-145 prostate
# NCI/ADR-RES ovarian = system: NCI/ADR-RES ovarian
# MCF7 breast = system: MCF7 breast
# A549 NSCLC = system: A549 NSCLC
# HL-60(TB) leukemia = system: HL-60(TB) leukemia
Compound,GI50 (SF-539 CNS),TGI (SF-539 CNS),GI50 (HOP-92 NSCLC),TGI (HOP-92 NSCLC),GI50 (K-562 leukemia),TGI (K-562 leukemia),GI50 (CCRF-CEM leukemia),TGI (CCRF-CEM leukemia),GI50 (UACC-257 melanoma),TGI (UACC-257 melanoma),GI50 (DU-145 prostate),TGI (DU-145 prostate),GI50 (NCI/ADR-RES ovarian),TGI (NCI/ADR-RES ovarian),GI50 (MCF7 breast),TGI (MCF7 breast),GI50 (A549 NSCLC),TGI (A549 NSCLC),GI50 (HL-60(TB) leukemia),TGI (HL-60(TB) leukemia)
NC(N)=N/N=C/c1ccc(Br)cc1,2.33 µM,6.35 µM,5780 nM,24 µM,3720 nM,> 100 µM,12600 nM,> 100 µM,12.8 µM,29.1 µM,5.5 µM,22.1 µM,3.15 µM,10.6 µM,2280 nM,11.7 µM,6.46 µM,23.4 µM,2500 nM,> 100 µM
CCCCCCCCCCCCCCCC(N)c1ccccc1 (stereo not drawn),1.69 µM,3.17 µM,1570 nM,3.23 µM,1890 nM,4.2 µM,1980 nM,4.33 µM,1.78 µM,3.4 µM,1.75 µM,3.22 µM,1.85 µM,3.66 µM,1620 nM,3.18 µM,1.78 µM,3.56 µM,1370 nM,3.02 µM
Nc1cc(N)c2nc(-c3ccccc3)c(Oc3ccc(Cl)c(Cl)c3)nc2c1,13.5 µM,29.5 µM,,,3550 nM,> 100 µM,2980 nM,> 100 µM,28.5 µM,87.2 µM,,27.1 µM,11.8 µM,36.1 µM,14200 nM,70.6 µM,18.1 µM,43.5 µM,5150 nM,> 100 µM
NS(=O)(=O)c1ccc(N=Nc2c(=O)[nH]c3ccc4[nH]cccc4c23)cc1,0.295 µM,1.46 µM,,,721 nM,> 25 µM,202 nM,> 25 µM,0.828 µM,6.98 µM,0.611 µM,> 7.96 µM,> 15.8 µM,> 25 µM,129 nM,> 25 µM,1.89 µM,> 25 µM,557 nM,1.53 µM
CCCC(CCC)C(=O)O,> 100 µM,> 20000 µM,> 100000 nM,> 20000 µM,> 100000 nM,> 20000 µM,> 100000 nM,> 20000 µM,> 100 µM,> 20000 µM,> 100 µM,> 20000 µM,> 100 µM,> 20000 µM,> 100000 nM,> 20000 µM,> 100 µM,> 20000 µM,> 100000 nM,> 20000 µM
CC(=O)N1c2ccc(-c3ccc(C(=O)O)cc3)cc2[C@H](Nc2ccc(Cl)cc2)C[C@@H]1C,0.0622 µM,20.2 µM,24 nM,13.3 µM,168 nM,> 55.2 µM,1630 nM,30.3 µM,0.366 µM,21.5 µM,12.1 µM,> 100 µM,0.551 µM,> 100 µM,27.3 nM,> 100 µM,1.23 µM,28.1 µM,38.4 nM,11.1 µM
COc1cc(OC)c2c(c1Cl)O[C@]1(C2=O)C(OCc2ccccc2)=CC(=O)C[C@H]1C,0.884 µM,9.28 µM,,,538 nM,29.1 µM,532 nM,12.2 µM,1.76 µM,49.2 µM,0.485 µM,5.63 µM,0.584 µM,3.72 µM,395 nM,25.9 µM,0.769 µM,> 100 µM,531 nM,3.52 µM
CCC(=O)OCN1C(=O)C=CC1=O,20.5 µM,36.8 µM and 33.8 µM,2650 nM,16.7 µM and 31.6 µM,4190 nM,,,1.84 µM,15.7 µM,29.4 µM and 22.2 µM,20 µM,34.2 µM and 30.2 µM,,56.2 µM and 63.5 µM,,40.9 µM and 39.7 µM,,39.9 µM and 34.9 µM,17300 nM,70.4 µM and 8.36 µM
COc1ccc2c(c1)C(=O)c1c-2n(CCCNCCO)c(=O)c2cc([N+](=O)[O-])ccc12,< 0.01 µM,< 0.01 µM,< 10.8 nM,0.149 µM,,,< 10 nM,< 0.01 µM,0.0691 µM,1.96 µM,< 0.01 µM,,< 0.01 µM,1.68 µM,< 10 nM,0.0264 µM,,,< 10 nM,0.122 µM
O=C(N/N=C/c1cccc(O)c1)c1ccc(C(F)(F)F)nc1Nc1cccc(C(F)(F)F)c1,1.78 µM,4.03 µM,1290 nM,4.56 µM,1190 nM,2.69 µM,258 nM,1.08 µM,2.36 µM,8.44 µM,1.82 µM,10.7 µM,2.04 µM,5.93 µM,1370 nM,4.08 µM,2.43 µM,7.84 µM,1560 nM,3.45 µM
O=C(CN1CCN(c2ccccn2)CC1)Nc1ccc(Cl)cc1C(=O)c1ccccc1Cl,45.9 µM,> 100 µM,2520 nM,53.7 µM,3550 nM,> 100 µM,9990 nM,> 100 µM,54.9 µM,> 100 µM,> 100 µM,> 100 µM,86.8 µM,> 100 µM,9260 nM,> 100 µM,14.3 µM,> 100 µM,5510 nM,> 100 µM
CC(C)Cn1cnc2c(SCc3ccccn3)nc(N)nc21,,,,> 100 µM,,> 100 µM,,> 100 µM,,> 100 µM,,> 100 µM,,> 100 µM,,> 100 µM,,> 100 µM,,> 100 µM
CC[C@@](C)(NC(=O)[C@H](C)NC(=O)CCNC(=O)C(C)(C)NC(=O)[C@H](C)NC(=O)[C@@H]1CCCN1C(=O)[C@@](C)(CC)NC(=O)[C@H](Cc1ccccc1)NC(=O)C1CCCN1C(=O)C(C)(C)NC(=O)C1CCCN1C(=O)C(C)(C)NC(C)=O)C(=O)NCCC(=O)N[C@@H](CC(C)C)C(=O)NC(C)(C)C(=O)NCCC(=O)N[C@@H](CC(C)C)C(=O)NC(C)(C)C(=O)NC(C)(C)C(=O)N[C@@H](CC(C)C)C(=O)NCCC(=O)NCO (stereo partly drawn) (Ac-[Aib][ξP][Aib][ξP]F[dIva]PA[Aib][βAla]A[dIva][βAla]L[Aib][βAla]L[Aib][Aib]L[βAla]-X5),0.131 µM,0.354 µM,,,79.1 nM,0.332 µM,224 nM,0.577 µM,0.0579 µM,0.21 µM,0.125 µM,0.338 µM,0.238 µM,0.488 µM,65.1 nM,0.286 µM,0.133 µM,0.351 µM,318 nM,0.65 µM
Nc1nc(N)c(-c2ccc(Cl)cc2)c(/C=C/c2ccc([N+](=O)[O-])cc2)n1,7.15 µM,30 µM,,,3160 nM,> 100 µM,6170 nM,> 100 µM,7.51 µM,> 100 µM,6.66 µM,> 100 µM,7.99 µM,> 100 µM,3160 nM,> 100 µM,3.1 µM,47.8 µM,5640 nM,> 100 µM
C=C1C(OCCO)OC2O[C@]3(C)CCC4[C@H](C)CCC1C24OO3 (stereo partly drawn),36.6 µM,> 100 µM,,,4160 nM,> 100 µM,4920 nM,28.4 µM,> 100 µM,> 100 µM,36.3 µM,> 100 µM,36 µM,> 100 µM,17400 nM,> 100 µM,28.4 µM,> 100 µM,3100 nM,15.6 µM
CC(C)CC1NC(=O)C(C(C)C)NC(=O)CC(C)COC(=O)C(CC(C)C)N(C)C(=O)C(C(C)C)NC(=O)C(C(C)C)OC1=O (stereo not drawn),,27.5 µM,,> 50 µM,,> 50 µM,,> 50 µM,,> 50 µM,,> 50 µM,,> 50 µM,,> 50 µM,,> 50 µM,,
COc1ccc(OC)c(/C=C/C(=O)c2ccc3cc(OC)ccc3c2)c1,,> 12.6 µM,12400 nM,> 50 µM,6460 nM,> 50 µM,,,7.05 µM,> 27.8 µM,,> 20.7 µM,,> 13.8 µM,11400 nM,> 50 µM,9.52 µM,> 32.4 µM,4930 nM,> 39.4 µM
CCC(=O)Oc1ccc(/C=N/NC(N)=S)nc1,1.51 µM,5.52 µM,,,5050 nM,> 100 µM,2810 nM,> 100 µM,21.5 µM,> 100 µM,3.05 µM,> 100 µM,3.27 µM,> 100 µM,1880 nM,> 100 µM,35.4 µM,> 100 µM,2170 nM,> 100 µM
COc1ccc2c(c1)O/C(=C\c1ccc([N+](=O)[O-])s1)C2=O,,,1570 nM,5.37 µM,285 nM,1.31 µM,478 nM,> 100 µM,,> 100 µM,2.53 µM,> 24.8 µM,4.52 µM,> 100 µM,621 nM,> 100 µM,3.46 µM,> 100 µM,,> 100 µM
COn1cc(C(=O)N=C(SC)SC)c2ccccc21,18.7 µM,43.4 µM,27700 nM,> 100 µM,2290 nM,17.5 µM,22300 nM,91 µM,18.2 µM,59.2 µM,30.9 µM,> 100 µM,18.2 µM,42.5 µM,> 100000 nM,> 100 µM,23.9 µM,87.6 µM,,
O=C(Nc1ccc(N2CCNCC2)cn1)c1[nH]ncc1Nc1ncnc2sc3c(c12)CCC3,,,4690 nM,> 100 µM,207 nM,0.498 µM,,,16.6 µM,41.2 µM,1.6 µM,3.06 µM,4.75 µM,> 100 µM,1680 nM,4.2 µM,1.67 µM,3.5 µM,6280 nM,29.8 µM
O=C1CC2OCC=C3CN4CCC56c7ccccc7N1C5C2C3CC46 (stereo not drawn) (tested in a mixture with another compound),> 50 µg/mL,> 50 µg/mL,> 50 µg/mL,> 50 µg/mL,3.44 µg/mL,> 50 µg/mL,,,> 50 µg/mL,> 50 µg/mL,> 50 µg/mL,> 50 µg/mL,> 50 µg/mL,> 50 µg/mL,> 50 µg/mL,> 50 µg/mL,> 50 µg/mL,> 50 µg/mL,0.103 µg/mL,0.216 µg/mL
O=C(O)CSc1nnc2c3ccccc3c3ccccc3c2n1,,> 100 µM,,> 100 µM,,> 100 µM,,,,> 100 µM,,> 100 µM,,> 100 µM,,> 100 µM,,> 100 µM,,
NCCNc1ncnc2ccc(Cl)cc12,,,,> 100 µM,,> 100 µM,,> 100 µM,,> 100 µM,,> 100 µM,,> 100 µM,,> 100 µM,,> 100 µM,,> 100 µM
CC1(C)N=C(N)N=C(N)N1c1ccc(CCC(=O)Nc2cccc(S(=O)(=O)F)c2)cc1,5.65 µM,> 100 µM,> 100000 nM,> 100 µM,1350 nM,> 100 µM,,,4.09 µM,> 100 µM,5.81 µM,> 100 µM,> 100 µM,> 100 µM,6480 nM,> 100 µM,3.32 µM,> 100 µM,2860 nM,> 100 µM
NC(N)=NC(N)=NCc1ccco1,> 1250 µM,> 1250 µM,116000 nM,,264000 nM,> 1250 µM,,,843 µM and 565 µM,> 1250 µM,> 1250 µM,> 1250 µM,> 1250 µM,> 1250 µM,600000 nM,> 1250 µM,340 µM and 325 µM,> 1250 µM,390000 nM,> 1250 µM
COc1ccc(-c2cc(=O)c3cccnc3[nH]2)cc1,,> 100 µM,,,,88.6 µM,,85.6 µM,,> 100 µM,,> 100 µM,,> 100 µM,,> 100 µM,,> 100 µM,13000 nM,57.1 µM
